Entries after “also recorded” stand apart in the source; their conditions may differ.
What was measured:
[1] = weakly basic conditions; cited from earlier work
[2] = tested on: Molt-4 cells; test: time course of cell killing alone and with BSO, Molt-4; assay type: cell-based; details: Molt-4, 2-3 day period; 4 μM drug, 1 mM BSO
Method: (§1) Molt 4-cells were seeded at a density of 0.05×10^6 cell/ml in the recommended growth medium in the absence or the presence of drugs as indicated. Cells were incubated at 37° C. in a 5% CO2 atmosphere and proliferation was monitored in 14 hr. by cell counting in a hemacytometer. .smallcircle., untreated control; .circle-solid., treated with 4 μM 4-iodo-3-nitrobenzoic acid; .gradient., treated with 1 mM BSO; .tangle-soliddn., treated with 4 μM-iodo-3-nitrobenzoic acid and 1 mM BSO; .quadrature., treated with 4 μM 4-INO2 BA; .box-solid., treated with 1 mM BSO; .gradient., treated with 4 μM INO2 BA and 1 mM BSO. L-1210 cells were seeded at a density of 0.05×10^6 cells/ml either from untreated stock suspensions or from 24-hr. pretreated (0.2×10^6 cells/ml) suspensions. .smallcircle., untreated control; .circle-solid., treated with […] NOBA; .gradient., treated with 1 mM BSO; .tangle-soliddn., 24-hr pretreatment with 1 mM BSO then treated with 4 μM NOBA.
(§2) A time course of the cell killings by 4-iodo-3-nitrobenzoic acid, INO2 BA and NOBA, each alone and in combination with BSO was obtained. Molt-4 cells were seeded at a density of 0.05×10^6 cells/ml in the recommended growth medium in the absence or presence of drugs as indicated in FIG. 3. Drugs were added to the wells immediately after seeding from 10-40 mM stock solution in DMSO. BSO was added from a 100 mM aqueous stock solution. Cells were incubated at 37° C. in a 5% CO2 atmosphere and proliferation was monitored in 14 hours by cell counting in a hemacytometer.

[3] = tested on: SIV 23686 (AZT-resistant); test: AZT-resistant SIV propagation (syncytia formation), SIV 23686; assay type: cell-based; details: INO2 BA 0, BSO 0.01 mM
Method: (§3) CEM × 174 (3 × 10^5 /ml) were infected with equal doses o
(§4) SIVmac239 or virus isolates from SIVmac239infected rhesus macaques (MMU
(§5) 23686, 22803). Three days postinfection, INO2 BA concentrations
(§6) ranging from 0 to 300 μM with or without BSO were added, and incubated
(§7) for an additional 3 days. Cell cultures were then examined for syncytia
(§8) formation. The number of syncytia in cell cultures was counted in
(§9) arbitration fields under 40× magnification and scored as follows: […]

[4] = tested on: cellular GSH; test: cellular GSH levels under BSO; assay type: cell-based; details: at the concentrations applied
Method: The role of cellular GSH was determined by the simultaneous addition of INO2 BA and BSO (an inhibitor of GSH biosynthesis, Meister, Pharmacology and Therapeutics 51:155-194 (1991), which at the concentrations applied diminished cellular GSH levels below 5-10% of controls.) The results are tabulated below in Table 3.

[5] = tested on: SIV 22803 (AZT-resistant); test: AZT-resistant SIV propagation (syncytia formation), SIV 22803; assay type: cell-based; details: INO2 BA 0, BSO 0.05 mM
Method: as §3, §4, §5, §6, §7, §8, §9

[6] = literature; cited from earlier work
[7] = tested on: L-1210 cells; test: time course of cell killing alone and with BSO, L-1210; assay type: cell-based, murine; details: L-1210, 2-3 day period; 1 mM BSO
Method: as §1, §2

[8] = tested on: SIVmac239 or virus isolates in CEM ×174 cells; test: SIV replication in CEM ×174 cells, SIV p27 core antigen assay; assay type: cell-based
Source text: Infected cell cultures described in FIG. 4 were used for determination of supernatant virus titers by SIV p27 core antigen assay as described in Example XIV. The ordinate represents p27 ELISA performed on day 10 of the assay and the abscissa represents the concentration of INO2 BA alone (rear rows in panels A, B and C) and in combination with BSO (front rows in panels A, B and C).
CEM ×174 cells (3×10^5 /ml) were infected with 3.75 TCID50 /ml (50% tissue culture infectious dosage per ml of cell suspension) stock solution of SIVmac239 or virus isolates from SIVmac239-infected rhesus macaques on day 0. Uniform infection of cells was ensured by the infection of one cell population only per virus preparation. Three days post-infection, the cells were distributed (500 μl/well) into individual wells of a 24-well plate. Fresh medium containing INO2 BA concentrations ranging from 0 to 300 μM and/or BSO concentrations ranging from 0 to 0.25 mM were added to establish final 1-ml reaction volumes, and the cultures were further incubated for 4 days. The wells were then replenished with fresh CEM ×174 cells (3×10^5 /ml), INO2 BA and/or BSO were re-added at the same concentrations as in the original incubates, and incubation was continued for an additional 3 days. This procedure intends to mimic conditions of in vivo chemotherapy. Cell viability and virus titers in the supernatant were determined on day 10 (3 days after the addition of new cells) by the tetrazolium (MTT) method of Hansen et al., J. Immunol. Methods 119:208-210 (1982) and by the SIV p27 and reverse transcriptase (RT) assays described by Chuang et al., FEBS Lett. 326:140-144 (1993), respectively.
SIVmac p27 core antigen levels were determined by an enzyme immunoassay provided by Coulter Corp. (Hialeah, Fla.). The assay was performed according to the manufacturer's specifications.

[9] = tested on: tumor cells; details: Hakam et al.; cited from earlier work
[10] = tested on: MDA 468; test: effect of nitroso- and nitro-compounds in mammary cancer cells (monolayer), MDA 468; assay type: cell-based, human; details: drug exposure 24-48 hours
Method: II. I50 and LD100 Values for Nitroso- and Nitro-Compounds in (A) Mammary Cancer Cells (monolayer cultures) and in (B) L-1210 Murine Leukemia Cells (suspension culture).
Seeding was at 2×10^4 or 0.8×10^4 cells/cm^2, drugs were added 6-18 hours after seeding, and drug exposure time was 24-48 hours.

[11] = tested on: pADPRT; test: pADPRT zinc content / zinc ejection; assay type: biochemical; details: 25° C.
Method: FIG. 2A is a graph comparing the effects of NOBA and INOBA on the enzyme activity and zinc content of pADPRT. Inactivation was performed as described in Example III. In these experiments ^65 Zn^2+ -labeled pADPRT was used. The Zn^2+ content of pADPRT (upper panel) was determined as follows: two parallels of aliquots (4 μl) were pipetted into 500 μl of ice-cold washing solution (50 mM Tris, pH 7.7, 10 mM 2-mercaptoethanol and 0.5 mM EDTA) then filtered onto GF/C disks presoaked in washing solution (cold), quickly washed 4 times with 1 ml of ice-cold washing solution, dried, and the radioactivity determined. The protein-bound ^65 Zn^2+ is shown as percent of the untreated sample. Enzyme assays (lower panel) were performed as in FIG. 1.
For the release of Zn^2+ from transblotted pADPRT, the enzyme (3 μg per lane) was separated on SDS-PAGE, transblotted onto a nitrocellulose membrane, and renatured in the presence of ^65 ZnCl2. […] After incubation, 1 ml of the supernatant was counted for radioactivity, and the strips were washed 3 times with 2 ml of 50 mM Tris-HCl pH 7.4), 0.5 mM EDTA and 10 Mm 2-mercaptoethanol, and then dried and exposed to X-ray film. The intensity of the autoradiographic spots was quantitated by a scanner. […]

[12] = reduction by GSH and ascorbate in in vitro chemical tests; assay type: physicochemical
[13] = tested on: pADPRT; test: pADPRT enzyme inactivation; assay type: biochemical; details: 2 hr at 25° C.
Method: FIG. 1 is a graph comparing the inactivation of pADPRT by NOBA and INOBA. pADPRT inactivation was performed in 20-μl volumes of buffer containing 50 mM Hepes (pH 7.4), 100 mM KCl, 0.5 mM EDTA, pADPRT (0.4 μg/μl) and different concentrations of inactivators. Inactivators were serially diluted in the above buffer from a 20 mM stock solution in DMF. The DMF concentration (2.5%) was kept constant in the inactivation mixes. After 2 hr. at 25° C., aliquots (3 μl) were removed for assay of enzyme activity in a volume of assay mix (200 μl) in which the inactivators were dilute enough not to act as inhibitors. The assay mix consisted of 100 mM Tris (pH 7.7), 14 mM 2-mercaptoethanol, 0.1 mM [^32 P]-NAD^+, 0.2 mg/ml coDNA and 0.1 mg/ml histones. The incorporated ^32 P, proportional to enzyme activity, is plotted as percent of the untreated sample.
NOBA and INOBA were assayed for their respective effects on pADPRT enzyme inactivation and pADPRT zinc content according to the methods described in Buki et al., FEBS Lett. 290:181-185 (1991) at pH 7.0. pADPRT inactivation was performed in 20-μl volumes of buffer containing 50 mM Hepes (pH 7.4), 100 mM KCl, 0.5 mM EDTA, pADPRT (0.4 μg/μl) and different concentrations of inactivators. Inactivators were serially diluted in the above buffer from a 20 mM stock solution in DMF. The DMF concentration (2.5%) was kept constant in the inactivation mixes. […]

For `NC(=O)c1cccc(N(O)S(=O)(=O)CC(N)C(=O)O)c1` (centres unmarked), the “release of C-nitroso molecule” value [1] is listed as “releases the C-nitroso molecule at weakly basic conditions”.
With `CCCCS(=N)(=O)CCC(N)C(=O)O` (racemic) [BSO, DL-buthionine sulfoximine, reference compound] the “effect on cell proliferation” value [2] was “no significant effect”, the Syncytia [3] was “+++ (20-30)” and the “cellular GSH level” value [4] was 5-10 % of controls. For the same molecule, the Syncytia [5] was “++++ (over 30)”, the “toxicity of BSO” value [6] was “very low; also recorded: non-toxicity” and the “effect on cell proliferation” value [7] was “no significant effect”. For the same molecule, the “effect on p27 formation / SIV replication” value ([8]; BSO alone, FIG. 5D) was “no effect”.
For `Nc1ccc2oc(=O)ccc2c1` [6-amino-1,2-benzopyrone], the anti-tumor effects [9] is listed as “anti-tumor effects”.
With `O=c1ccc2c(I)c([N+](=O)[O-])ccc2o1` [INO2 BP, 5-iodo-6-nitro-1,2-benzopyrone] the I50 [10] was 260 Namomoles/cm × 10^4 cells.
For `NC(=O)c1ccc(I)c(N=O)c1` [INOBA, 4-Iodo-3-Nitrosobenzamide], the “time in which zinc ejection was complete” value [11] was at most 2 h, the “reduction to the corresponding hydroxyl amines” value [12] was “rapidly reduced” and the “inactivation of pADPRT, NOBA vs INOBA” value [13] was “more effective inactivator of pADPRT”. For the same molecule, the “effect of GSH depletion by BSO on inhibitory effect on SIV replication” value ([8]; with BSO, CEM ×174 cells) was “synergistically enhances”.

Source: US5877185A, “Synergistic compositions useful as anti-tumor agents” (priority 1995, dated 1999)
